Active and inactive are the calls of the source. No cut-off for these calls is given here.
Assays:
COLO 205 = assay: Anticancer activity against human COLO 205 cells assessed as total growth inhibition incubated for 48 hrs by SRB assay; type: functional
[1] = Selectivity index, ratio of GI50 for human HaCaT cells to GI50 for human Jurkat cells; type: toxicity; conditions: HaCaT cells versus Jurkat cells, read-out: RatioGI50
786-0 = assay: Anticancer activity against human 786-0 cells assessed as growth inhibition incubated for 48 hrs by SRB assay; type: functional
EKVX = assay: Anticancer activity against human EKVX cells assessed as total growth inhibition incubated for 48 hrs by SRB assay; type: functional
OVCAR-3 [2] = assay: Anticancer activity against human OVCAR-3 cells assessed as lethality incubated for 48 hrs by SRB assay; type: functional; conditions: read-out: LC50 (the source's name)
HCT-116 [3] = assay: Anticancer activity against human HCT-116 cells assessed as cell growth inhibition incubated for 72 hrs by MTT assay; type: functional
IGROV-1 = assay: Anticancer activity against human IGROV-1 cells assessed as total growth inhibition incubated for 48 hrs by SRB assay; type: functional
NCI-H23 [4] = assay: Anticancer activity against human NCI-H23 cells assessed as growth inhibition incubated for 48 hrs by SRB assay; type: functional
HCT-116 [5] = assay: Anticancer activity against human HCT-116 cells assessed as growth inhibition incubated for 48 hrs by SRB assay; type: functional
SNB-19 [6] = assay: Anticancer activity against human SNB-19 cells assessed as growth inhibition incubated for 48 hrs by SRB assay; type: functional
A549 = assay: Anticancer activity against human A549 cells assessed as lethality incubated for 48 hrs by SRB assay; type: functional; conditions: read-out: LC50 (the source's name)
SW-620 = assay: Anticancer activity against human SW-620 cells assessed as growth inhibition incubated for 48 hrs by SRB assay; type: functional
HCT-15 = assay: Anticancer activity against human HCT-15 cells assessed as growth inhibition incubated for 48 hrs by SRB assay; type: functional
Malme-3M = assay: Anticancer activity against human Malme-3M cells assessed as lethality incubated for 48 hrs by SRB assay; type: functional; conditions: read-out: LC50 (the source's name)
SR [7] = assay: Anticancer activity against human SR cells assessed as lethality incubated for 48 hrs by SRB assay; type: functional; conditions: read-out: LC50 (the source's name)
T47D = assay: Anticancer activity against human T47D cells assessed as growth inhibition incubated for 48 hrs by SRB assay; type: functional
OVCAR-3 [8] = assay: Anticancer activity against human OVCAR-3 cells assessed as growth inhibition incubated for 48 hrs by SRB assay; type: functional
NCI-H23 [9] = assay: Anticancer activity against human NCI-H23 cells assessed as lethality incubated for 48 hrs by SRB assay; type: functional; conditions: read-out: LC50 (the source's name)
MOLT-4 = assay: Anticancer activity against human MOLT-4 cells assessed as lethality incubated for 48 hrs by SRB assay; type: functional; conditions: read-out: LC50 (the source's name)
MCF7 = assay: Anticancer activity against human MCF7 cells assessed as lethality incubated for 48 hrs by SRB assay; type: functional; conditions: read-out: LC50 (the source's name)
HOP-62 = assay: Anticancer activity against human HOP-62 cells assessed as lethality incubated for 48 hrs by SRB assay; type: functional; conditions: read-out: LC50 (the source's name)
HOP-92 = assay: Anticancer activity against human HOP-92 cells assessed as total growth inhibition incubated for 48 hrs by SRB assay; type: functional
SNB-19 [10] = assay: Anticancer activity against human SNB-19 cells assessed as lethality incubated for 48 hrs by SRB assay; type: functional; conditions: read-out: LC50 (the source's name)
Jurkat = assay: Induction of morphological changes in human Jurkat cells assessed as chromatin condensation incubated for 24 hrs by Hoechst 33258 and propidium iodide staining based fluorescence microscopy; type: functional, cell-based
U-251 = assay: Anticancer activity against human U-251 cells assessed as cell growth inhibition incubated for 72 hrs by MTT assay; type: functional
[11] = Selectivity index, ratio of GI50 for human HaCaT cells to GI50 for human KB 3-1 cells; type: toxicity; conditions: HaCaT cells versus KB 3-1 cells, read-out: RatioGI50
UO-31 [12] = assay: Anticancer activity against human UO-31 cells assessed as lethality incubated for 48 hrs by SRB assay; type: functional; conditions: read-out: LC50 (the source's name)
SR [13] = assay: Anticancer activity against human SR cells assessed as total growth inhibition incubated for 48 hrs by SRB assay; type: functional
OVCAR-8 = assay: Anticancer activity against human OVCAR-8 cells assessed as growth inhibition incubated for 48 hrs by SRB assay; type: functional
OVCAR-3 [14] = assay: Anticancer activity against human OVCAR-3 cells assessed as total growth inhibition incubated for 48 hrs by SRB assay; type: functional
UO-31 [15] = assay: Anticancer activity against human UO-31 cells assessed as inhibition of cell growth at 10 uM incubated for 48 hrs by SRB assay; type: functional; conditions: UO-31, 48 h, values are per cent of control
SF-295 [16] = assay: Anticancer activity against human SF-295 cells assessed as growth inhibition incubated for 48 hrs by SRB assay; type: functional
NCI-H522 = assay: Anticancer activity against human NCI-H522 cells assessed as growth inhibition incubated for 48 hrs by SRB assay; type: functional
SF-295 [17] = assay: Anticancer activity against human SF-295 cells assessed as lethality incubated for 48 hrs by SRB assay; type: functional; conditions: read-out: LC50 (the source's name)
K562 [18] = assay: Anticancer activity against human K562 cells assessed as total growth inhibition incubated for 48 hrs by SRB assay; type: functional
CCRF-CEM = assay: Anticancer activity against human CCRF-CEM cells assessed as total growth inhibition incubated for 48 hrs by SRB assay; type: functional
BT-549 = assay: Anticancer activity against human BT-549 cells assessed as growth inhibition incubated for 48 hrs by SRB assay; type: functional
UACC-62 = assay: Anticancer activity against human UACC-62 cells assessed as growth inhibition incubated for 48 hrs by SRB assay; type: functional
NCI-H23 [19] = assay: Anticancer activity against human NCI-H23 cells assessed as total growth inhibition incubated for 48 hrs by SRB assay; type: functional
UO-31 [20] = assay: Anticancer activity against human UO-31 cells assessed as total growth inhibition incubated for 48 hrs by SRB assay; type: functional
SF-268 = assay: Anticancer activity against human SF-268 cells assessed as growth inhibition incubated for 48 hrs by SRB assay; type: functional
K562 [21] = assay: Anticancer activity against human K562 cells assessed as lethality incubated for 48 hrs by SRB assay; type: functional; conditions: read-out: LC50 (the source's name)
HL-60 = assay: Anticancer activity against human HL-60 cells assessed as lethality incubated for 48 hrs by SRB assay; type: functional; conditions: read-out: LC50 (the source's name)
RXF 393 = assay: Anticancer activity against human RXF 393 cells assessed as total growth inhibition incubated for 48 hrs by SRB assay; type: functional
HeLa = assay: Anticancer activity against human HeLa cells assessed as cell growth inhibition incubated for 72 hrs by MTT assay; type: functional
CAKI-1 = assay: Anticancer activity against human CAKI-1 cells assessed as growth inhibition incubated for 48 hrs by SRB assay; type: functional
HCC 2998 = assay: Anticancer activity against human HCC 2998 cells assessed as growth inhibition incubated for 48 hrs by SRB assay; type: functional
NCI-H322M = assay: Anticancer activity against human NCI-H322M cells assessed as lethality incubated for 48 hrs by SRB assay; type: functional; conditions: read-out: LC50 (the source's name)
UO-31 [22] = assay: Anticancer activity against human UO-31 cells assessed as growth inhibition incubated for 48 hrs by SRB assay; type: functional
SN12C = assay: Anticancer activity against human SN12C cells assessed as total growth inhibition incubated for 48 hrs by SRB assay; type: functional
Hs-578T = assay: Anticancer activity against human Hs-578T cells assessed as lethality incubated for 48 hrs by SRB assay; type: functional; conditions: read-out: LC50 (the source's name)

O=C1CC(N2C(=O)/C(=C/C(Cl)=C/c3ccc([N+](=O)[O-])cc3)SC2=S)C(=O)N1c1ccc(O)cc1 (configuration not stated)
TGI (COLO 205): 5.04 µM
selectivity ratio [1]: 56.6
GI50 (786-0): 1.23 µM
TGI (EKVX): 11.7 µM
CC50 (OVCAR-3 [2]): 4.96 µM
GI50 (HCT-116 [3]): 4.52 µM
TGI (IGROV-1): 2.68 µM
GI50 (NCI-H23 [4]): 1.56 µM
GI50 (HCT-116 [5]): 0.751 µM
GI50 (SNB-19 [6]): 1.34 µM
CC50 (A549): 50.8 µM
GI50 (SW-620): 0.684 µM
GI50 (HCT-15): 0.472 µM
CC50 (Malme-3M): 21 µM
CC50 (SR [7]): > 100 µM
GI50 (T47D): 2.45 µM
GI50 (OVCAR-3 [8]): 0.604 µM
CC50 (NCI-H23 [9]): 7.94 µM
CC50 (MOLT-4): > 100 µM
CC50 (MCF7): > 100 µM
CC50 (HOP-62): > 100 µM
TGI (HOP-92): 3.72 µM
CC50 (SNB-19 [10]): 8.97 µM
Activity (Jurkat): Active
GI50 (U-251): 1.1 µM
selectivity ratio [11]: 9.2
CC50 (UO-31 [12]): 5.78 µM
TGI (SR [13]): 4.97 µM
GI50 (OVCAR-8): 2.16 µM
TGI (OVCAR-3 [14]): 1.96 µM
growth, % of control at 10 µM (UO-31 [15]): -75.2%
GI50 (SF-295 [16]): 1.31 µM
GI50 (NCI-H522): 1.86 µM
CC50 (SF-295 [17]): 5.54 µM
TGI (K562 [18]): 9.55 µM
TGI (CCRF-CEM): 3.87 µM
GI50 (BT-549): 2.03 µM
GI50 (UACC-62): 1.67 µM
TGI (NCI-H23 [19]): 3.52 µM
TGI (UO-31 [20]): 2.79 µM
GI50 (SF-268): 2.43 µM
CC50 (K562 [21]): > 100 µM
CC50 (HL-60): > 100 µM
TGI (RXF 393): 3.22 µM
GI50 (HeLa): 6.13 µM
GI50 (CAKI-1): 1.15 µM
GI50 (HCC 2998): 1.48 µM
CC50 (NCI-H322M): 24.3 µM
GI50 (UO-31 [22]): 1.35 µM
TGI (SN12C): 5.88 µM
CC50 (Hs-578T): > 100 µM

O=C1CC(N2C(=O)/C(=C/C(Cl)=C/c3ccc([N+](=O)[O-])cc3)SC2=S)C(=O)N1c1ccc(Cl)cc1 (configuration not stated)
TGI (COLO 205): 3.76 µM
selectivity ratio [1]: 29.4
GI50 (786-0): 1.63 µM
TGI (EKVX): > 100 µM
CC50 (OVCAR-3 [2]): 8.89 µM
GI50 (HCT-116 [3]): 9.18 µM
TGI (IGROV-1): 3.26 µM
GI50 (NCI-H23 [4]): 1.64 µM
GI50 (HCT-116 [5]): 1.35 µM
GI50 (SNB-19 [6]): 1.17 µM
CC50 (A549): > 100 µM
GI50 (SW-620): 0.508 µM
GI50 (HCT-15): 0.599 µM
CC50 (Malme-3M): > 100 µM
CC50 (SR [7]): 57.6 µM
GI50 (T47D): 2.03 µM
GI50 (OVCAR-3 [8]): 0.721 µM
CC50 (NCI-H23 [9]): 15 µM
CC50 (MOLT-4): 62.6 µM
CC50 (MCF7): > 100 µM
CC50 (HOP-62): > 100 µM
TGI (HOP-92): 6.79 µM
CC50 (SNB-19 [10]): 7.54 µM
Activity (Jurkat): Active
GI50 (U-251): 8.93 µM
selectivity ratio [11]: 1.42
CC50 (UO-31 [12]): > 100 µM
TGI (SR [13]): 14.2 µM
GI50 (OVCAR-8): 0.832 µM
TGI (OVCAR-3 [14]): 2.62 µM
growth, % of control at 10 µM (UO-31 [15]): -42.9%
GI50 (SF-295 [16]): 1.4 µM
GI50 (NCI-H522): 1.73 µM
CC50 (SF-295 [17]): 7.51 µM
TGI (K562 [18]): 11.6 µM
TGI (CCRF-CEM): 12.4 µM
GI50 (BT-549): 1.75 µM
GI50 (UACC-62): 1.77 µM
TGI (NCI-H23 [19]): 4.31 µM
TGI (UO-31 [20]): 3.3 µM
GI50 (SF-268): 3.07 µM
CC50 (K562 [21]): 54.9 µM
CC50 (HL-60): > 100 µM
TGI (RXF 393): 2.72 µM
GI50 (HeLa): 6.65 µM
GI50 (CAKI-1): 1.13 µM
GI50 (HCC 2998): 1.59 µM
CC50 (NCI-H322M): > 100 µM
GI50 (UO-31 [22]): 1.07 µM
TGI (SN12C): 11.1 µM
CC50 (Hs-578T): > 100 µM

From ChEMBL document CHEMBL5113392, “Novel hybrid pyrrolidinedione-thiazolidinones as potential anticancer agents: Synthesis and biological evaluation” (Eur J Med Chem, 2022)
